Test results: the NIST ThermoML archive (doi:10.1016/j.fluid.2013.12.017)

Assay: molar heat capacity at constant pressure; xn = mol fraction of the nth substance listed
Conditions: 101 kPa, Liquid, Small sample (50 mg) DSC

CCC(N)(CO)CO [2-amino-2-ethyl-1,3-propanediol] + O
molar heat capacity at constant pressure [J/K/mol]
Conditions	x1 = 0.1494	x1 = 0.3002	x1 = 0.4502	x1 = 0.5992	x1 = 0.7505	x1 = 0.8989	x1 = 1
303.15 K	107.2	141.9	178.1	216.5	260.2	314.7	367.5
308.15 K	108.6	143.7	180.3	219.2	263.4	318.5	370.5
313.15 K	110	145.5	182.5	221.9	266.6	322.3	374.1
318.15 K	111.3	147.3	184.7	224.7	269.9	325.9	378
323.15 K	112.7	149.1	186.9	227.4	273.1	329.6	381.5
328.15 K	113.8	151	189.1	230.1	276.4	333.3	385.8
333.15 K	115.5	152.8	191.3	232.8	279.6	337	389.9
338.15 K	116.8	154.6	193.5	235.6	282.8	340.7	393.9
343.15 K	118.3	156.5	195.7	238.3	286.1	344.4	398.6
348.15 K	119.6	158.3	197.9	241	289.3	348.3	403.1
353.15 K	121.3	160.2	200.2	243.8	292.6	352	408.2
